What was measured:
[1] = ABTS^•+ radical cation decolorization assay; settings: concentration 0.1 mg/mL, mean ± SD
Procedure: (§1) To evaluate the antioxidant ability of the tested systems, antioxidant analysis was performed. Antioxidants can scavenge hydroxyl radicals in two ways: by reacting directly with hydroxyl radicals (DPPH^•, ABTS^•+) or indirectly inhibiting the formation of hydroxyl radicals by chelating metal ions involved in the production of hydroxyl radicals. The antioxidant activity of the systems studied was investigated by using DPPH^• scavenging, ABTS^•+ scavenging ability, and Fe^2+-chelating ability. In this study, the antioxidant activity of pure hesperetin and its Schiff bases (HHSB, HIN, and HTSC) and HP-β-CD complexes were compared, and the positive control was Trolox.
Antioxidant activity using ABTS^•+ cation radical scavenging was determined according to a modified method. ABTS solution (2.5 mM) was mixed with 1.0 mM potassium persulfate solution and left at room temperature in the dark for 12-24 h. After this time, the absorbance of the finished ABTS^•+ solution was corrected with ethanol to 0.70 ± 0.02 at 745 nm. A total of 100 µL of the sample was reacted for 5 min with 2 mL of ABTS^•+ solution (A745 nm = 0.70 ± 0.02). The absorbance value of the reaction mixture was measured at 745 nm. […] Scavenging activity (%) = [1 − (Asample − Ablank)/Acontrol] × 100%(4) where Acontrol is the absorbance value of the control (ABTS^•+ solution with water), Ablank is the absorbance value of samples mixed with anhydrous ethanol, and Asample is the absorbance value of the added test sample to ABTS^•+ solution at 745 nm, respectively.

[2] = system: Listeria monocytogenes ATCC 19115; assay: Antagonistic activity, diffusion-well method; type: cell-based; settings: ATCC19115, compounds at 2.5 µM, wells 8 mm, 37 °C, 18 h
Procedure: (§2) The antimicrobial activity of the HESP, ligands ([…], and HTSC), and complexes with HP-β-CD were tested against Gram-positive bacteria (Listeria monocytogenes ATCC 19111, Listeria monocytogenes ATCC 19112, Listeria monocytogenes ATCC 19115, Staphylococcus aureus ATCC 29737, Staphylococcus aureus ATCC 25923, Staphylococcus aureus ATCC 27734) and Gram-negative bacteria (Escherichia coli ATCC 11303, Escherichia coli ATCC 35218, Salmonella Typhimurium, ATCC 14028, Salmonella Enteritidis ATCC 13076, Salmonella Choleraesuis ATCC 7001). The strains were activated from cryobanks by passaging them twice onto a Nutrient Broth (Merck, Darmstadt, Germany). All bacteria were grown for 24 h at 37 °C. Antagonistic activity of the following chemical compounds: […], and […] determined by the diffusion-well method. The test strains were plated on Mueller-Hinton Agar (Merck, Darmstadt, Germany) in the form of a surface layer of bacteria according to the procedures recommended by the European Committee on Antimicrobial Susceptibility Testing EUCAST [74]. The detailed methodology was described in the paper by Sykuła et al.. Bacterial inoculum was prepared from an overnight solid culture. The inoculum density was 1-2 × 10^8 CFU/mL, which corresponds to a McFarland standard of 0.5. The samples of the test compounds were dissolved in 5% (w/w) DMSO to obtain a concentration of 500 μM, and were sterilized using filtration (filter pore width 0.2 μm; (Sartorius AG, Gottingen, Germany). The bacteria inoculum test culture (0.1 mL) smear conducted was on sterile Mueller-Hinton Agar (Merck, Darmstadt, Germany) plates. […] A total of 50 μL of the prepared solutions of the tested compounds at a concentration of 500 μM were added to the wells. The plates prepared in this way were incubated at 37 °C for 18 h. After this time, zones of growth inhibition were read and the result was given in mm. The experiment was carried out in two independent repetitions. The results were expressed in average values and standard deviation. The results were analyzed using a one-way ANOVA and post-hoc Tukey's test.

[3] = system: Salmonella Typhimurium ATCC 14028; assay: Antagonistic activity, diffusion-well method; type: cell-based; settings: Salmonella enterica, compounds at 2.5 µM, wells 8 mm, 37 °C, 18 h
Procedure: as §2

[4] = system: Listeria monocytogenes ATCC 19112; assay: Antagonistic activity, diffusion-well method; type: cell-based; settings: ATCC19112, compounds at 2.5 µM, wells 8 mm, 37 °C, 18 h
Procedure: as §2

[5] = system: Staphylococcus aureus ATCC 27734; assay: Antagonistic activity, diffusion-well method; type: cell-based; settings: ATCC27734, compounds at 2.5 µM, wells 8 mm, 37 °C, 18 h
Procedure: as §2

[6] = system: Listeria monocytogenes ATCC 19111; assay: Antagonistic activity, diffusion-well method; type: cell-based; settings: ATCC19111, compounds at 2.5 µM, wells 8 mm, 37 °C, 18 h
Procedure: as §2

[7] = system: Salmonella Choleraesuis ATCC 7001; assay: Antagonistic activity, diffusion-well method; type: cell-based; settings: Salmonella enterica, compounds at 2.5 µM, wells 8 mm, 37 °C, 18 h
Procedure: as §2

[8] = system: Salmonella Enteritidis ATCC 13076; assay: Antagonistic activity, diffusion-well method; type: cell-based; settings: Salmonella enterica, compounds at 2.5 µM, wells 8 mm, 37 °C, 18 h
Procedure: as §2

[9] = DPPH assay (antioxidant activity); settings: concentration 0.1 mg/mL, mean ± SD
Procedure: as §1
The detailed methodology of DPPH assay was described in the previous paper by Sykuła et al..

[10] = FRAP assay (ferric-ion reducing antioxidant power); settings: mean ± SD
Procedure: as §1
The antioxidant capacity determined by the FRAP assay (the ability of plasma to reduce iron) was carried out using a modification of the FRAP assay. The FRAP reagent consisted of the following solutions: 300 mM acetate, pH 3.6 glacial acetic acid buffer, 20 mM ferric chloride (FeCl3×6H2O), and 10 mM 2,4,6-tripyridyl-S-triazine (TPTZ) prepared in 40 mM HCl. The aforementioned solutions were mixed together in a ratio of 10:1:1 (v/v/v). The FRAP assay consisted of adding 15 µL of sample to 1.98 mL of reagent and incubating the mixture at 37 °C for 4 min. Absorbance measurement was recorded at 593 nm against a blank. Total antioxidant capacity was estimated relative to a standard of known FRAP concentration, ferrous sulfate.

Row | Compound | ABTS^•+ antioxidant activity [1] [%] | zone of inhibition at 2.5 µM [2] [mm] | zone of inhibition at 2.5 µM [3] [mm] | zone of inhibition at 2.5 µM [4] [mm] | zone of inhibition at 2.5 µM [5] [mm] | zone of inhibition at 2.5 µM [6] [mm] | zone of inhibition at 2.5 µM [7] [mm] | zone of inhibition at 2.5 µM [8] [mm] | DPPH antioxidant activity [9] [%] | FRAP antioxidant activity [10]
1 | COc1ccc(C2CC(=O)c3c(O)cc(O)cc3O2)cc1O (stereo not drawn) [Hesperetin, 3′,5,7-Trihydroxy-4′-methoxyflavanone] | 77.42 ± 2.2 | 0 | 0 | 0 | 0 | 0 | 0 | 0 | 38.08 ± 2.7 | 0.0005 ± 0.0005 mmolFe(II)/L
2 | COc1ccc(C2CC(=NNC(N)=S)c3c(O)cc(O)cc3O2)cc1O (stereo not drawn) [HTSC, N-[2,3-dihydro-5,7-dihydroxy-2-(3-hydroxy-4-methoxyphenyl)chromen-4-ylidene]thiosemicarbazide] | 86.61 ± 4.6 | 0 | 0 | 0 | 0 | 0 | 0 | 0 | 93.72 ± 6.8 | 0.000005 ± 0.00005 mmolFe(II)/L
3 | COc1ccc(C2C/C(=N\NC(=O)c3ccccc3)c3c(O)cc(O)cc3O2)cc1O (racemic) [HHSB] | 98.11 ± 5.0 | 0 | 0 | 0 | 0 | 0 | 0 | 0 | 44.29 ± 4.5 | 0.000005 ± 0.00005 mmolFe(II)/L
4 | COc1ccc(C2C/C(=N\NC(=O)c3ccncc3)c3c(O)cc(O)cc3O2)cc1O (racemic) [HIN] | 31.56 ± 1.6 | 0 | 0 | 0 | 0 | 0 | 0 | 0 | 34.62 ± 3.8 | –

Reference: PMC10574185, “Encapsulation and Biological Activity of Hesperetin Derivatives with HP-β-CD” (Molecules, 2023)
